# Assay results reported in ChEMBL document CHEMBL5137099, “Discovery of Novel cccDNA Reducers toward the Cure of Hepatitis B Virus Infection” (J Med Chem, 2022).
# What was measured:
# [1] = Permeability of the compound by PAMPA analysis; format: ADME; conditions: read-out: permeability
# Hepatitis B virus [2] = assay: Antiviral activity against HBV infected in human HepDES19 cells assessed as reduction in HBV cccDNA production by measuring inhibition of HBeAg secretion incubated for 5 days by ELISA; format: functional, organism-based; conditions: HepDES19, 120 h
# Hepatitis B virus [3] = assay: Antiviral activity against HBV infected in human HepG2 cells assessed as reduction in HBeAg secretion incubated for 5 days by counter screen assay; format: functional, organism-based; conditions: HepG2, 120 h
# [4] = Aqueous solubility of the compound; format: physicochemical; conditions: buffer
# [5] = Metabolic stability in human microsomes assessed as clearance; format: ADME, Microsome; conditions: read-out: CLH
# [6] = Octanol-aqueous buffer distribution coefficient, log D of the compound at pH 7.4 by CAMDIS assay; format: physicochemical
# Hepatitis B virus [7] = assay: Antiviral activity against HBV infected in human primary hepatocyte cells assessed as reduction in HBV cccDNA production by measuring inhibition of HBsAg secretion measured after 48 hrs by ELISA; format: functional, organism-based
# [8] = Cytotoxicity against human HepDES19 cells assessed as reduction in cell viability measured after 5 days by CCK-8 assay; format: toxicity, cell-based; conditions: time 5 day
# [9] = Therapeutic index, ratio of CC50 for cytotoxicity against human HepDES19 cells assessed as reduction in cell viability measured after 5 days by CCK-8 assay to IC50 for antiviral activity against HBV infected in human HepDES19 cells assessed as reduction in HBV cccDNA production by measuring inhibition of HBeAg secretion incubated for 5 days by ELISA; format: toxicity, cell-based; conditions: time 5 day, read-out: Ratio CC50/IC50
Papp [1] [×10⁻⁶ cm/s],IC50 (Hepatitis B virus [2]) [µM],solubility [4] [µg/mL],CLint scaled [5] [mL/min/kg],logD [6],Structure (SMILES),IC50 (Hepatitis B virus [3]) [µM],IC50 (Hepatitis B virus [7]) [µM],CC50 at 120 h [8] [µM],selectivity ratio at 120 h [9]
0.59,1.12,252,–,1.75,Cc1ccc(Cl)c2oc3cc(N4CCC(C(=O)O)C4)ccc3c(=O)c12 (stereo not given),> 50,–,–,–
0.015,1.5,< 1,–,–,CC1c2ccc(N3CCCC3)cc2Oc2c(Cl)cccc21 (stereo not given),> 50,–,–,–
0.79,4.85,23,6.7,–,NC1CCN(c2ccc3c(=O)c4cccc(F)c4oc3c2)C1 (stereo not given),> 50,–,–,–
2.03,1.74,–,–,1.73,CC1(C(=O)O)CCN(c2ccc3c(=O)c4cccc(Cl)c4oc3c2)C1 (stereo not given),> 50,–,–,–
0.09,7.33,–,–,–,Clc1cccc2c1Oc1cc(N3CCCC3)ccc1C2C1COC1 (stereo not given),> 50,–,–,–
0.96,4.04,> 395,–,< -0.5,O=C(O)C1CCN(c2cc3oc4c(Cl)cccc4c(=O)c3cn2)C1 (stereo not given),> 50,–,–,–
–,3.99,< 1,–,–,Fc1cccc2c1Oc1cc(N3CCCC3)ccc1C2,> 50,–,–,–
2.09,0.83,< 1,22,–,O=C1CCCN1c1ccc2c(=O)c3cccc(F)c3oc2c1,> 50,–,–,–
9.1,19.2,–,20.6,–,O=c1c2ccc(N3CCCC3)nc2oc2c(F)cccc12,> 50,–,–,–
1.64,7.56,73,6.2,–,O=c1c2ccc(N3CCCCCC3)cc2oc2c(F)cccc12,> 50,–,–,–
–,8.23,> 430,–,< -0.5,N#Cc1cc2c(=O)c3cccc(Cl)c3oc2cc1N1CCC(C(=O)O)C1 (stereo not given),> 50,–,–,–
–,10.9,< 1,–,–,O=C(Nc1ccc2c(=O)c3cccc(Cl)c3oc2c1)c1ccccc1[N+](=O)[O-],> 50,–,> 100,> 9
0.95,0.21,< 1,20.5,–,O=c1c2ccc(N3CCCC3)cc2oc2c(F)cccc12,> 50,–,–,–
0.68,> 50,> 415,–,0.47,COc1ccc(Cl)c2oc3cc(N4CCC(C(=O)O)C4)ccc3c(=O)c12 (stereo not given),> 50,–,–,–
–,2.43,< 1,–,–,O=C(Nc1ccc2c(=O)c3cccc(F)c3oc2c1)c1ccncc1F,> 50,–,> 100,> 20.6
1.78,27,> 510,–,1.26,O=C(O)C1(C(F)(F)F)CCN(c2ccc3c(=O)c4cccc(Cl)c4oc3c2)C1 (stereo not given),> 50,–,–,–
0.7,2.86,330,–,0.93,CCOc1ccc(Cl)c2oc3cc(N4CCC(C(=O)O)C4)ccc3c(=O)c12 (stereo not given),> 50,–,–,–
0.8,1.1,> 443,–,–,N#Cc1ccc(Cl)c2oc3cc(N4CCC(C(=O)O)C4)ccc3c(=O)c12 (stereo not given),> 50,12.4,–,–
0.98,12.7,294,–,–,CC1(C)CN(c2ccc3c(=O)c4cccc(Cl)c4oc3c2)CC1C(=O)O (stereo not given),> 50,–,–,–
–,4.03,< 1,–,–,O=C(Nc1ccc2c(=O)c3ccccc3oc2c1)c1ccccc1F,> 50,–,> 50,> 13
–,2.62,< 1,–,–,O=C(Nc1ccc2c(=O)c3cccc(F)c3oc2c1)c1ccccc1Cl,> 50,–,> 100,> 38
8.5,6.21,< 1,19.7,–,CC(=O)Nc1ccc2c(=O)c3cccc(F)c3oc2c1,> 50,–,–,–
2.09,5.86,< 1,–,–,O=C1Nc2ccc(N3CCCC3)cc2Oc2c(Cl)cccc21,> 50,–,–,–
6.73,0.17,< 1,15.7,–,CCNc1ccc2c(=O)c3cccc(Cl)c3oc2c1,> 50,–,–,–

# The next lines start with the molecule.
Structure (SMILES),Papp [1] [×10⁻⁶ cm/s],IC50 (Hepatitis B virus [2]) [µM],solubility [4] [µg/mL],CLint scaled [5] [mL/min/kg],logD [6],IC50 (Hepatitis B virus [3]) [µM],IC50 (Hepatitis B virus [7]) [µM],CC50 at 120 h [8] [µM],selectivity ratio at 120 h [9]
O=C(O)C1CCCN(c2ccc3c(=O)c4cccc(Cl)c4oc3c2)C1 (stereo not given),2.43,3.82,< 474,6.2,–,> 50,–,–,–
O=C(O)C1CCN(c2cc3oc4c(Cl)cccc4c(=O)c3cc2F)C1 (stereo not given),–,1.17,–,–,1.39,> 50,7.74,–,–
O=C(O)C1CCN(c2cc3oc4c(Cl)cccc4c(=O)c3cc2Cl)C1 (stereo not given),1.59,1.12,< 1,–,1.95,> 50,–,–,–
CN(C(=O)c1ccncc1)c1ccc2c(=O)c3cccc(F)c3oc2c1,–,18.3,< 1,–,–,> 50,–,> 100,> 5
O=C(O)CC1CCN(c2ccc3c(=O)c4cccc(Cl)c4oc3c2)C1 (stereo not given),1.55,6.62,< 465,–,–,> 50,–,–,–
O=C(O)C1CCN(c2ccc3c(=O)c4c(O)ccc(Cl)c4oc3c2)C1 (stereo not given),0.53,1.74,200,–,1.71,> 50,–,–,–
O=C(O)c1cc2c(=O)c3cccc(Cl)c3oc2cc1N1CCCC1,8.64,> 100,30,6.7,–,> 50,–,–,–
O=C1Nc2cccc(Cl)c2Oc2cc(N3CCC(C(=O)O)C3)ccc21 (stereo not given),1.64,14.1,–,–,–,> 50,–,–,–
O=c1c2ccc(N3CCCC3)cc2oc2c(Cl)cccc12,0.24,0.23,< 1,18.9,–,> 50,–,–,–
Cn1ccnc1C(=O)Nc1ccc2c(=O)c3cccc(F)c3oc2c1,–,0.49,–,–,–,> 50,–,> 50,> 102
O=C(O)[C@H]1CCN(c2ccc3c(=O)c4cccc(Cl)c4oc3c2)C1,3.02,1.92,> 430,–,1.09,> 50,1.58,–,–
CN1CCN(c2ccc3c(=O)c4cccc(F)c4oc3c2)CC1,0.08,16.1,27,18,–,> 50,–,–,–
O=C(O)C1CCN(c2ccc3c(c2)Oc2c(Cl)cccc2S3(=O)=O)C1 (stereo not given),1.26,> 50,< 506,–,–,> 50,–,–,–
O=C(Nc1ccc2c(=O)c3cccc(F)c3oc2c1)c1ccncc1,–,1.14,< 1,–,–,> 50,–,> 100,> 134
O=C(O)C1CCCN1c1ccc2c(=O)c3cccc(Cl)c3oc2c1 (stereo not given),2.79,11.5,290,6.2,–,> 50,–,–,–
O=c1c2ccc(N3CCOCC3)cc2oc2c(F)cccc12,1.8,2.1,< 1,20.8,–,> 50,–,–,–
OC1(C(F)(F)F)c2ccc(N3CCCC3)cc2Oc2c(Cl)cccc21 (stereo not given),6.73,19.2,< 1,–,–,> 50,–,–,–
CCN(CC)c1ccc2c(=O)c3cccc(Cl)c3oc2c1,0.54,1.65,< 1,20.3,–,> 50,–,–,–
O=c1c2ccc(N3CCC(O)C3)cc2oc2c(F)cccc12 (stereo not given),1.49,0.43,< 1,17.5,–,> 50,–,–,–
CCNc1ccc2c(=O)c3cccc(F)c3oc2c1,0.36,0.61,< 1,22.6,–,> 50,–,–,–
O=C(Nc1ccc2c(=O)c3cccc(F)c3oc2c1)c1ccccc1O,–,6.79,< 1,–,–,> 50,–,35.1,5
O=C1Nc2ccc(N3CCC(C(=O)O)C3)cc2Oc2c(Cl)cccc21 (stereo not given),1,> 50,< 415,–,–,> 50,–,–,–
O=C(O)C1CCN(c2ccc3c(=O)c4cccc(Cl)c4oc3n2)C1 (stereo not given),1.55,50,410,6.2,–,> 50,–,–,–
O=C(O)[C@H]1CN(c2ccc3c(=O)c4cccc(Cl)c4oc3c2)C[C@@H]1c1ccc(F)cc1,–,7.39,–,–,–,> 50,–,–,–
COc1ccccc1C(=O)Nc1ccc2c(=O)c3cccc(F)c3oc2c1,–,84.9,< 1,–,–,> 50,–,> 100,> 1
O=c1c2ccc(N3CCCCC3)cc2oc2c(Cl)cccc12,0.49,0.98,< 1,20.2,–,> 50,–,–,–
O=C(Nc1ccc2c(=O)c3cccc(F)c3oc2c1)c1ccccc1,0.22,1.89,< 1,–,–,> 50,–,> 100,> 53
Clc1cccc2c1Oc1cc(N3CCCC3)ccc1C2,0.36,1.11,< 1,–,–,> 50,–,–,–
